Source: US5420157A, “Inhibitors of farnesyl protein transferase or prodrugs thereof” (Merck & Co., Inc., priority 1991, dated 1995)
Structures can show the parent of a compound that is named as a salt.

Columns and labels:
[1] = target: T1, Farnesyl-protein transferase (FTase) (Bos taurus, UniProt P29702+P49355); assay: Inhibition of Ras farnesylation in vitro (FTase inhibition, Ras-CVLS and [3H]FPP); format: biochemical, bovine; details: for IC50: Ras-CVLS 3.5 μM, 0.25 μM [3H]FPP, partially purified FTase from bovine brain, assay buffer pH 7.5
T1 construct: Farnesyl-protein transferase (FTase) from bovine brain; from tissue; host or cells: bovine brain, partially purified (DEAE-Sephacel, N-octyl agarose, mono Q)
Protocol: The intrinsic farnesyl-protein transferase (FTase) activity of representative compounds of this invention was measured by the assay as described below:
Farnesyl-protein transferase (FTase) from bovine brain was chromatographed on DEAE-Sephacel (Pharmacia, 0-0.8M NaCl gradient elution), N-octyl agarose (Sigma, 0-0.6M NaCl gradient elution), and a mono Q HPLC column (Pharmacia, 0-0.3M NaCl gradient). Ras-CVLS (Cys-Val-Leu-Ser) at 3.5 μM, 0.25 μM [^3 H]FPP, and the indicated compounds were incubated with this partially purified enzyme preparation. The FTase inhibition data presented below is a measurement of the ability of the test compound to inhibit Ras farnesylation in vitro.

[2] = Reaction of anhydride (9) with CH3OH; format: physicochemical; details: methanolic solution
Description: (§1) The latter band under went a hypsochromic shift to […] after addition of dil NaOH.

[3] = Equilibrium between diacid (10) and anhydride (9) in solution, pH dependence (UV); format: physicochemical; details: for Predominant form in anhydride/diacid equilibrium: in solution, pH dependent
Description: The equilibrium between diacid (10) and anhydride (9) in a solution is pH dependent. […] However, when basified with dil NaOH, this maximum shifted to ^λ max 243 nm. This shift is clear evidence of opening of the anhydride into the diacid.
as §1

Row | IC50 [1] [nM] | Reactivity with CH3OH [2] | Predominant form in anhydride/diacid equilibrium [3] | SMILES | Form present under assay conditions ([3]; CH3OH-HEPES buffer (7:5), pH 7.5, UV maximum 243 nm) | RAS farnesyl transferase inhibitory activity of trapped diacid salt ([1]; open diacid form (10) trapped as diisopropylethylamine salt)
1 | 46 | reacts slowly with CH3 OH | predominates when the solution is acidic | CCCCCCCCCCCCCCC1=C(C)C(=O)OC1=O [Compound (9)] | exits in the open dicarboxylate form of compound (10) | 
2 | 46 |  | predominates when the solution is basic | CCCCCCCCCCCCCC/C(C(=O)O)=C(\C)C(=O)O [Compound (10)] |  | 
3 |  |  |  | CCCCCCCCCCCCCC/C(C(=O)O)=C(\C)C(=O)O [diisopropylethylamine salt] |  | without any loss of RAS farnesyl transferase inhibitory activity
